The values below come from paper PMC7179434, “1,2,4-Triazolo[1,5-a]pyrimidines as a Novel Class of Inhibitors of the HIV-1 Reverse Transcriptase-Associated Ribonuclease H Activity” (Molecules, 2020).

Data set [1] concerns the target HIV-1 RNase H. Also noted: method as in ref 17-25, 27-29 (per compound as in Figure 1 legend). The following applies: known allosteric RNHIs, 27-29 (per compound as in Figure 1 legend), cited from earlier work.
The subject of data set [2] is HIV-1 RDDP. On the set-up: method as in ref 17-21, 27-29 (per compound as in Figure 1 legend). The following applies: known allosteric RNHIs; 27-29 (per compound as in Figure 1 legend); cited from earlier work.
Data set [3] relates to HIV-1 replication. The following applies: cited from earlier work; for EC50 / EC50 (HIV-1 replication): 28 (per compound as in Figure 1 legend).
For data set [4], the system named is cell growth. Also noted: method as in PMID 17184135, PMID 23631411. The following applies: concentration that inhibits cell growth by 50%; read-out: CC50 (cytotoxicity); cited from earlier work.
In data set [5] the target is HIV-1 RT-associated RNase H (Human immunodeficiency virus type 1 group M subtype B, UniProt P03366). The data set can be described thus: biochemical. Format: biochemical.
The target of data set [6] is HIV-2 RNase H. Also noted: method as in PMID 18831589. The following applies: cited from earlier work.
Data set [7] has as its target HIV-1 RT-associated RDDP (Human immunodeficiency virus type 1 group M subtype B, UniProt P03366). As to the kind of experiment: biochemical. Format: biochemical.
Data set [8] has as its system HIV-1 (IIIB strain). The format is cell-based. The following applies: acutely infected MT-4 cells.
Data set [9] has as its system HIV-2 (ROD strain). The data set can be described thus: Anti-HIV-2 activity in acutely infected MT-4 cells (MTT). Format: cell-based.
Data set [10] is described as follows: in vitro. The following applies: human.

The structures appear in SMILES notation. Entries after “also recorded” stand apart in the source; their conditions may differ. Read-outs that look alike come from different tables or passages of the source.

Consider `COc1ccc2ccccc2c1/C=N/NC(=O)c1ccc(O)c(O)c1` [Compound 1], for which the IC50 in data set [1] is 0.5 µM; in data set [2], over 25 µM. In addition, the EC50 in [3] was 5.5 µM. In addition, the CC50 in data set [4] was over 100 µM.

As to `O=C(O)c1ccc(-c2cccc(/C=N/NC(=O)c3ccc(O)c(O)c3)c2)cc1` [Compound 2], the IC50 in [1] is 0.4 µM; in data set [2], over 50 µM.

For the compound `O=C1Nc2ccccc2/C1=N\Nc1nc(-c2ccc(O)c(O)c2)cs1` [Compound 3], the IC50 was 2 µM in [1] and 1.4 µM in data set [2]. Further, the “EC50 (HIV-1 replication)” value in data set [3] was “not active”.

As for `N#Cc1ccc(-c2csc(N/N=C3/C(=O)Nc4ccccc43)n2)cc1` [Compound 4], the IC50 in [1] was 1.3 µM; in [2], 9.8 µM.

As for `NC(=O)c1c(N)sc2c1CCCCC2` [Compound 5], the IC50 in [5] was 4 ± 0.5 µM; in data set [1], 2 to 2.5 µM; in data set [1] (listed as 5 (NSC727447)), 2 µM; in data set [6] it was 2 to 2.5 µM; in data set [6] (listed as 5 (NSC727447)), 2.5 µM. In data set [3], the “EC50 (HIV-1 replication)” value is “not active”. In [3] (anti-HIV-1 activity vs cytotoxicity), the “selectivity index (SI)” value was 4.

As to `Cc1sc2nc(-c3ccc([N+](=O)[O-])cc3)[nH]c(=O)c2c1C` [Compound 6], the IC50 in data set [1] was 0.85 µM.

With `O=c1[nH]c(-c2ccc(O)c(O)c2)nc2sc3c(c12)CCCCC3` [Compound 7], the IC50 in [1] is 0.29 µM. Also, the EC50 in [3] is 1.6 µM. Also, the CC50 in data set [4] is 6.8 µM.

As for `O=C(Nc1sc2c(c1C(=O)Nc1ccccn1)CCCCC2)c1ccc(O)c(O)c1` [Compound 8], the figures for the IC50 in data set [1] and in data set [2] were 0.84 µM and 20.9 µM, respectively. The “EC50 (HIV-1 replication)” value in data set [3] is “not active”.

As for `O=c1oc(-c2ccc(O)c(O)c2)nc2sc3ccccc3c12` [Compound 9], the IC50 is 0.53 µM in [1] and 2.9 µM in [2]. In data set [3], the “EC50 (HIV-1 replication)” value was “not active”.

Consider `CCCCCCCC/C=C\CCCCCCCCNC(=O)/C=C/c1ccc(O)c(O)c1` [Compound 10], for which the IC50 in [1] is 0.68 µM; in [2], 2.3 µM.

In the case of `CCCCc1ccc(C(=O)Nc2nc3n(n2)C(c2ccccc2)C=C(C)N3)cc1` (stereo not shown) [Compound 11b], the IC50 in data set [5] was 13.1 ± 2.2 µM; in data set [7], over 100 µM. For the same compound, the “anti-HIV-1 (IIIB strain) activity” value in data set [8] was “none of the compounds having RNase H inhibition showed anti-HIV activity at concentrations lower than those cytotoxic”. In data set [9], the “anti-HIV-2 (ROD strain) activity” value is listed as “none of the compounds having RNase H inhibition showed anti-HIV activity at concentrations lower than those cytotoxic”.

`Cc1cc(-c2ccccc2)n2nc(NC(=O)c3ccc(O)c(O)c3)nc2n1` [Compound 12g, 3,4-Dihydroxy-N-(5-methyl-7-phenyl-[1,2,4]triazolo[1,5-a]pyrimidin-2-yl)benzamide] returned a melting point of 285 to 288 °C. Moreover, in [5], the midpoint of inhibition, the IC50, lay at 0.8 ± 0.2 µM. The IC50 in data set [7] was over 100 µM. The “anti-HIV-1 (IIIB strain) activity” value in data set [8] was “did not result in anti-HIV-1 activity in cellular context; also recorded: none of the compounds having RNase H inhibition showed anti-HIV activity at concentrations lower than those cytotoxic”. The “anti-HIV-2 (ROD strain) activity” value in [9] is “none of the compounds having RNase H inhibition showed anti-HIV activity at concentrations lower than those cytotoxic”. For the same compound, the CC50 at 5 days in [10] is 112 µM.

Compound `Cc1cc(-c2ccccc2)nc2nc(NC(=O)c3ccc(N)cc3)nn12` [Compound 13e, 4-Amino-N-(7-methyl-5-phenyl-[1,2,4]triazolo[1,5-a]pyrimidin-2-yl)benzamide] came in with a melting point of 318 to 319 °C. For the same compound, the half-inhibitory concentration (IC50) in [5] is over 100 µM. The compound further had an IC50 in data set [7] of over 100 µM.

For `COc1ccc(C(=O)Nc2nc3nc(-c4ccccc4)cc(C)n3n2)cc1OC` [Compound 13f, 3,4-Dimethoxy-N-(7-methyl-5-phenyl-[1,2,4]triazolo[1,5-a]pyrimidin-2-yl)benzamide], the melting point fell in the range of 175 to 179 °C. In addition, in [5], the IC50 is over 100 µM. Besides, the IC50 in data set [7] was over 100 µM.

Take `Cc1cc(-c2ccccc2)nc2nc(NC(=O)c3ccc(O)c(O)c3)nn12` [Compound 13g, 3,4-Dihydroxy-N-(7-methyl-5-phenyl-[1,2,4]triazolo[1,5-a]pyrimidin-2-yl)benzamide]: the melting point fell in the range of 298 to 312 °C. Further, the IC50 in [5] stood at 3.5 ± 1.5 µM. In addition, the IC50 in data set [7] is over 100 µM. Also, the “anti-HIV-1 (IIIB strain) activity” value in [8] is “none of the compounds having RNase H inhibition showed anti-HIV activity at concentrations lower than those cytotoxic”. The “anti-HIV-2 (ROD strain) activity” value in data set [9] was “none of the compounds having RNase H inhibition showed anti-HIV activity at concentrations lower than those cytotoxic”.

The compound `Cc1cc(C)n2nc(NC(=O)c3ccccc3F)nc2n1` [Compound 14c, N-(5,7-Dimethyl-[1,2,4]triazolo[1,5-a]pyrimidin-2-yl)-2-fluorobenzamide] gave a melting point of 195 to 200 °C. In [5], this compound came in with an IC50 of over 100 µM. Further, the IC50 in [7] was over 100 µM.

Turning to `Cc1cc(C)n2nc(NC(=O)c3ccc([N+](=O)[O-])cc3)nc2n1` [Compound 14d, N-(5,7-Dimethyl-[1,2,4]triazolo[1,5-a]pyrimidin-2-yl)-4-nitrobenzamide], the melting point lay within 273 to 276 °C. In data set [5], this compound had an IC50 of over 100 µM. The IC50 in data set [7] was over 100 µM.

For `Cc1cc(C)n2nc(NC(=O)c3ccc(N)cc3)nc2n1` [Compound 14e, 4-Amino-N-(5,7-dimethyl-[1,2,4]triazolo[1,5-a]pyrimidin-2-yl)benzamide], the melting point fell in the range of 248 to 258 °C. This compound showed an IC50 in [5] of over 100 µM. The compound further came in with an IC50 in data set [7] of over 100 µM.

`COc1ccc(C(=O)Nc2nc3nc(C)cc(C)n3n2)cc1OC` [Compound 14f, N-(5,7-Dimethyl-[1,2,4]triazolo[1,5-a]pyrimidin-2-yl)-3,4-dimethoxybenzamide] gave a melting point of 190 to 194 °C. The compound also had an IC50 in [5] of over 100 µM. The compound also returned an IC50 in [7] of over 100 µM.

The compound `Cc1cc(C)n2nc(NC(=O)c3ccc(O)c(O)c3)nc2n1` [Compound 14g, N-(5,7-Dimethyl-[1,2,4]triazolo[1,5-a]pyrimidin-2-yl)-3,4-dihydroxybenzamide] showed a melting point of 299 to 301 °C. In addition, half-maximal inhibition in [5] (IC50) was put at 6.23 ± 0.01 µM. In data set [7], this compound returned an IC50 of over 100 µM.

The compound `O=C(Nc1nc2nc(-c3ccccc3)cc(-c3ccccc3)n2n1)c1ccc(O)c(O)c1` [Compound 15g, N-(5,7-diphenyl-[1,2,4]triazolo[1,5-a]pyrimidin-2-yl)-3,4-dihydroxybenzamide] showed a melting point of 258 to 260 °C. In addition, the IC50 in data set [5] is 1.86 ± 0.54 µM. In data set [7], this compound came in with an IC50 of 20.5 ± 4.1 µM. Moreover, the “fold weaker potency against RDDP than against RNase H” value in [7] (RDDP IC50 vs RNase H IC50) turned out to be 10 fold. Moreover, the “anti-HIV-1 (IIIB strain) activity” value in [8] is “none of the compounds having RNase H inhibition showed anti-HIV activity at concentrations lower than those cytotoxic”. Besides, the “anti-HIV-2 (ROD strain) activity” value in data set [9] was “none of the compounds having RNase H inhibition showed anti-HIV activity at concentrations lower than those cytotoxic”.

In the case of `Cc1cc(-c2ccc(O)c(O)c2)n2nc(NC(=O)c3ccccc3)nc2n1` [Compound 17h, N-(7-(3,4-dihydroxyphenyl)-5-methyl-[1,2,4]triazolo[1,5-a]pyrimidin-2-yl)benzamide], the melting point lay within 260 to 263 °C. The compound also gave an IC50 in data set [5] of 1.13 ± 0.33 µM. Also, in [7], the IC50 was over 100 µM. Further, the “anti-HIV-1 (IIIB strain) activity” value in data set [8] is recorded as “none of the compounds having RNase H inhibition showed anti-HIV activity at concentrations lower than those cytotoxic”. For the same compound, the “anti-HIV-2 (ROD strain) activity” value in [9] is on record as “none of the compounds having RNase H inhibition showed anti-HIV activity at concentrations lower than those cytotoxic”.

As to `Cc1cc(-c2ccccc2)n2nc(C(=O)Nc3ccc(O)c(O)c3)nc2n1` [Compound 18g, N-(3,4-Dihydroxyphenyl)-5-methyl-7-phenyl-[1,2,4]triazolo[1,5-a]pyrimidine-2-carboxamide], the melting point is 278 to 281 °C. In data set [5], this compound gave an IC50 of 0.41 ± 0.005 µM. The IC50 in data set [7] is over 100 µM. In [8], the “anti-HIV-1 (IIIB strain) activity” value is “did not result in anti-HIV-1 activity in cellular context; also recorded: none of the compounds having RNase H inhibition showed anti-HIV activity at concentrations lower than those cytotoxic”. Further, in data set [9], the “anti-HIV-2 (ROD strain) activity” value is “none of the compounds having RNase H inhibition showed anti-HIV activity at concentrations lower than those cytotoxic”.
